Data on two compounds can be found in patent US9636348B2, “6-substituted estradiol derivatives for use in remyelination of nerve axons” (Endece LLC, priority 2011, dated 2017).

Test [1] concerns Interleukin 28A (IL28A). Nature of the test: Expression profiling (Agilent microarray) in tumor cell lines: IL28A. The class given is cell-based, human. To be noted: 24 hours, treated vs untreated, average of SKOV-3, A549 and Panc-1. As for the experimental part: (§1) The study includes three human tumor cell lines: A549, Panc-1, and SK-OV-3. The lines are each grown in two flasks cultured to roughly 40% confluence. One of the flasks is treated by addition of compound to the culture media at a various concentrations, i.e. 10 μM, 20 μM 50 μM, 100 μM or 200 μM. The other, mock treated, flask is treated only with the vehicle used to solubilize and deliver the drug. RNA extracted from the pairs of treated and untreated samples is subjected to microarray analysis on Agilent Whole Human Genome Microarrays (G4112F). Each analysis reports the difference in abundance of messenger RNAs for each of the 41,000 specific mRNA detectors on the array. This direct comparison of the treated versus untreated samples for each cell line provides extremely sensitive detection of changes in mRNA abundance resulting from the drug treatment. As each cell line comparison is self-normalized, the results can be compared across the samples with high confidence.
(§2) Three human tumor cell lines, A549, Panc-1, and SK-OV-3, are each grown in two flasks cultured to roughly 40% confluence. One of the flasks is treated by addition of compound to the culture media at concentrations of 10 μM, 50 μM and 100 μM. The other, mock treated, flask is treated only with the vehicle used to solubilize and deliver the drug. All flasks are cultured for a further 24 hours, and then the cells are scraped free and washed in ice-cold PBS, then collected by centrifugation. The harvested cells are immediately frozen, and stored at −80° C. or colder.
(§3) Total RNA is prepared from the frozen tissue samples using Trizol-based cell lysis followed by 65° C. hot phenol extraction and RNeasy chromatography purification. The purified RNA samples are analyzed spectrophotometrically. The concentration of RNA is determined by measuring the absorbance at 260 nm (A260). Given an absorbance of 1 unit at 260 nm corresponds to […].
(§4) All RNAs are labeled using 1 microgram of RNA as input to an Agilent Low Input Labeling reaction.
(§5) Test RNA is labeled with Cy5 (650 nm emitter) and reference RNA is labeled with Cy3 (550 nm emitter) nucleotides. Labeling, hybridizations and subsequent washings are carried out on Agilent H1Av2 human expression chips. The resulting hybridized chips are scanned on an Agilent microarray scanner, and intensity information for each detector spot is extracted from the scanned image using Agilent feature extraction software. […]
(§6) After the ratios have been calculated for the normalized data, the various control and duplicate samples are analyzed to build a model of how reproducible the results are, and how this reproducibility is varies depending on signal strength and noise. […]

The subject of test [2] is genes in signaling pathways involved in proliferation and differentiation of OPCs. Nature of the test: Expression profiling in tumor cell lines: overall statement. In kind it is cell-based, human. To be noted: SKOV-3, A549 and Panc-1 cells, Table 1. How it is done: as §1
Three human tumor cell lines, A549, Panc-1, and SK-OV-3, are each grown in two flasks cultured to roughly 40% confluence. […]
as §6

Test [3] has as its system oligodendrocyte precursor cells (OPCs). As to the kind of experiment: Oligodendrocyte differentiation assay (PLP-EGFP reporter). To be noted: for Potency in OPC differentiation (in words): 4 days, FIGS. 1 and 3. The class given is cell-based, mouse. How it is done:
OPC cultures are prepared as described Pedraza, C. E. et al., Glia 56(12), 1339-52 (2008), incorporated herein by reference. Brains are removed from E14.5 C57Bl6/J (expressing PLP-EGFP) mice (Mallon, B. S. et al., J. Neurosci 22(3), 876-85 (2002)), cleaned and cortical hemispheres are isolated. Tissue is then triturated and seeded in T-25 cm^2 flasks at a density of 1 brain (2 cortical hemispheres) per flask. Neurospheres are passaged once after 3 days. Cells from passage 2 are used to prepare two 96-well plates for the primary screen. Following the initial 48 hour incubation in OPC media, the OPCs are treated with 10 μM of 17β-estradiol, compound 4 and compound 21, along with vehicle control DMSO and positive control compounds including […] ciliary neurotrophic factor (CNTF) and 1 μM extracellular-signal-regulated (ERK) kinase inhibitor (MEKi). Cells are treated for a total of 4 days and the media is replaced once at the 48 hour mark with fresh compounds. After the 4 day treatment the cells are fixed with 4% paraformaldehyde and stained with Hoechst 33342 to visualize nuclei. Cells are also stained with anti-GFAP (GFAP=glial fibrillary acidic protein) antibodies to identify astrocytes. Cells are blocked with 3% normal goat serum followed by an overnight incubation of anti-rabbit GFAP antibody (1:500). Cells are labeled with a 1:1000 concentration of secondary goat anti-rabbit Alexa 647 fluorochrome antibody. Images are acquired using the Cellomics Arrayscan VTI. Twenty fields at 10× magnification are acquired per well and the cells expressing EGFP (enhanced green gluorescent protein; mature oligodendrocytes) and GFAP (astrocytes) are evaluated by neuronal profiling algorithm.
The extent of oligodendrocyte maturation is measured by the level of the PLP-EGFP reporter signal, along with the extent of process formation (FIGS. 1-4; legend for FIGS. 1 and 3 are presented below in Table 2). Proteolipid protein (PLP) is used as a biomarker because it is known to be expressed in mature oligodendrocytes and is a component of the myelin sheath. […] Compared to DMSO and all other compounds tested, including CNTF, the extent of process formation is also greatest for compound 21 (FIGS. 2 and 4).

The subject of test [4] is Interleukin 20 receptor alpha (IL20RA). Nature of the test: Expression profiling (Agilent microarray) in tumor cell lines: IL20RA. The class given is cell-based, human. To be noted: 24 hours, treated vs untreated, average of SKOV-3, A549 and Panc-1. As for the experimental part:
as §1, §2, §3, §4, §5, §6

Test [5] concerns Connexin (AF251047). Nature of the test: Expression profiling (Agilent microarray) in tumor cell lines: Connexin. In kind it is cell-based, human. To be noted: 24 hours, treated vs untreated, average of SKOV-3, A549 and Panc-1. How it is done: as §1, §2, §3, §4, §5, §6
Test [6] deals with Myelin oligodentrocyte glycoprotein (variant alpha 4) (MOG). As to the kind of experiment: Expression profiling (Agilent microarray) in tumor cell lines: MOG. The class given is cell-based, human. To be noted: 24 hours, treated vs untreated, average of SKOV-3, A549 and Panc-1. As for the experimental part:
as §1, §2, §3, §4, §5, §6

The subject of test [7] is Myelin basic protein (variant 7) (MBP). Nature of the test: Expression profiling (Agilent microarray) in tumor cell lines: MBP. The class given is cell-based, human. The conditions noted are these: 24 hours, treated vs untreated, average of SKOV-3, A549 and Panc-1. As for the experimental part:
as §1, §2, §3, §4, §5, §6

The subject of test [8] is Interleukin 23 receptor (IL23R). As to the kind of experiment: Expression profiling (Agilent microarray) in tumor cell lines: IL23R. To be noted: 24 hours, treated vs untreated, average of SKOV-3, A549 and Panc-1. In kind it is cell-based, human. How it is done:
as §1, §2, §3, §4, §5, §6

In test [9] the test system is Oligodentrocyte lineage transcription factor 2 (OLIG2). Nature of the test: Expression profiling (Agilent microarray) in tumor cell lines: OLIG2. In kind it is cell-based, human. To be noted: 24 hours, treated vs untreated, average of SKOV-3, A549 and Panc-1. As for the experimental part:
as §1, §2, §3, §4, §5, §6

For test [10], the system named is Transmembrane protein 108 (TMEM108). As to the kind of experiment: Expression profiling (Agilent microarray) in tumor cell lines: TMEM108. In kind it is cell-based, human. The conditions noted are these: 24 hours, treated vs untreated, average of SKOV-3, A549 and Panc-1. As for the experimental part:
as §1, §2, §3, §4, §5, §6

The subject of test [11] is Delta/notch-like EFG repeat (DNER). Nature of the test: Expression profiling (Agilent microarray) in tumor cell lines: DNER. In kind it is cell-based, human. To be noted: 24 hours, treated vs untreated, average of SKOV-3, A549 and Panc-1. As for the experimental part:
as §1, §2, §3, §4, §5, §6

`COCCCCCC[C@@H]1C[C@@H]2[C@H](CC[C@]3(C)C(O)CC[C@@H]23)c2ccc(O)cc21` (stereo partly drawn) [compound 21, (6R,8R,9S,13S,14S)-6-(6-methoxyhexyl)-13-methyl-7,8,9,11,12,13,14,15,16,17-decahydro-6H-cyclopenta[a]phenanthrene-3,17-diol]: the results for the “Gene expression IL28A” value in [1] (10 μM) and in test [1] (50 μM) were 1.44 log2 and 2.59 log2, respectively. In addition, the “Effect on genes in signaling pathways involved in proliferation and differentiation of OPCs” value in test [2] was “up-regulate”. For the same compound, the “Activity to differentiate oligodendrocytes compared to DMSO” value in test [3] (10 μM, 4 days (96 hours), mouse OPC culture, PLP-EGFP signal) was 3 fold. Besides, the “Activity to differentiate oligodendrocytes compared to positive control CNTF” value in test [3] (10 μM, 4 days (96 hours), mouse OPC culture, CNTF 10 μM) was found to be 1.5 fold. Besides, the “Activity to differentiate oligodendrocytes compared to positive control MEKi” value in test [3] (10 μM, 4 days (96 hours), mouse OPC culture, MEKi 1 μM) was found to be 2.0 fold. In test [3] (10 μM), the “Potency in OPC differentiation (in words)” value was “potent”. For the same compound, the “Extent of process formation” value in test [3] (compared to DMSO and all other compounds tested, including CNTF, FIGS. 2 and 4) was “greatest”. For the same compound, the “Gene expression IL20RA” value came out at 4.42 log2 in test [4] (10 μM) and 4.39 log2 in [4] (50 μM). Moreover, the “Gene expression Connexin AF251047” value in test [5] (10 μM) came out at 2.74 log2; in test [5] (50 μM) it was 3.08 log2. In addition, the “Gene expression MOG” value in test [6] (10 μM) was 5.23 log2; in test [6] (50 μM), 5.55 log2. The “Gene expression MBP” value stood at 6.07 log2 in test [7] (10 μM) and 5.04 log2 in [7] (50 μM). The entries for the “Gene expression IL23R” value in [8] (10 μM) and in test [8] (50 μM) were 5.31 log2 and 5.46 log2, respectively. Also, the “Gene expression OLIG2” value in test [9] (10 μM) is given as 6.16 log2; in test [9] (50 μM) it was 5.32 log2. The “Gene expression TMEM108” value in test [10] (10 μM) is 3.92 log2; in test [10] (50 μM), 3.96 log2. For the same compound, the “Gene expression DNER” value in test [11] (10 μM) is reported as 6.20 log2; in test [11] (50 μM), 4.79 log2.

Take `COC[C@@H]1C[C@@H]2[C@H](CC[C@]3(C)C(O)CC[C@@H]23)c2ccc(O)cc21` (stereo partly drawn) [compound 4, (6R,8R,9S,13S,14S)-6-(methoxymethyl)-13-methyl-7,8,9,11,12,13,14,15,16,17-decahydro-6H-cyclopenta[a]phenanthrene-3,17-diol]: the “Gene expression IL28A” value in test [1] (50 μM) is recorded as 1.35 log2; in test [1] (100 μM), 1.96 log2. Moreover, in test [2], the “Effect on genes in signaling pathways involved in proliferation and differentiation of OPCs” value was “up-regulate”. In addition, the “Potency in OPC differentiation (in words)” value in test [3] (10 μM) is given as “potent”. In addition, the “Gene expression IL20RA” value in test [4] (50 μM) is on record as 3.17 log2; in [4] (100 μM) it was 3.38 log2. The “Gene expression Connexin AF251047” value in test [5] (50 μM) was determined as 3.38 log2; in [5] (100 μM), 3.56 log2. Also, the figures for the “Gene expression MOG” value in [6] (50 μM) and in [6] (100 μM) were 3.99 log2 and 4.28 log2, respectively. The “Gene expression MBP” value was determined as 4.72 log2 in [7] (50 μM) and 4.80 log2 in test [7] (100 μM). The “Gene expression IL23R” value is 3.62 log2 in test [8] (50 μM) and 4.86 log2 in test [8] (100 μM). The results for the “Gene expression OLIG2” value in test [9] (50 μM) and in [9] (100 μM) were 4.98 log2 and 4.59 log2, respectively. Besides, the “Gene expression TMEM108” value in test [10] (50 μM) was found to be 3.59 log2; in [10] (100 μM) it was 3.62 log2. Moreover, the “Gene expression DNER” value in test [11] (50 μM) was 5.16 log2; in [11] (100 μM), 5.51 log2.
